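Compound exposure: 48 hours, 5 concentrations, 96-well plates. GI50 marks 50% less growth.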 Activity calls are given as the source filed them. No stated cut-off is given here; in the data, active = GI50 up to about 1.1 µM and inactive = higher. Residues, ends and D or L forms follow the SMILES beside them. *: point of attachment. OBn = c1ccc(CO*)cc1
Legend:
Assay in all cases: DTP human tumour cell line panel, 48 h
SN12C = tested on: SN12C
MOLT-4 = tested on: MOLT-4
SK-MEL-28 = tested on: SK-MEL-28
OVCAR-3 = tested on: OVCAR-3
SW-620 = tested on: SW-620
HCT-15 = tested on: HCT-15
T47D = tested on: T47D
MDA-N = tested on: MDA-N
U-251 = tested on: U-251
PC-3 = tested on: PC-3
CAKI-1 = tested on: CAKI-1
OVCAR-5 = tested on: OVCAR-5
SNB-75 = tested on: SNB-75
ACHN = tested on: ACHN
HCC 2998 = tested on: HCC 2998
UO-31 = tested on: UO-31
SK-MEL-2 = tested on: SK-MEL-2
MCF7 = tested on: MCF7
MDA-MB-435 = tested on: MDA-MB-435
A498 = tested on: A498

Structure (SMILES) | GI50 (SN12C) | GI50 (MOLT-4) | GI50 (SK-MEL-28) | GI50 (OVCAR-3) | GI50 (SW-620) | GI50 (HCT-15) [µM] | GI50 (T47D) | GI50 (MDA-N) | GI50 (U-251) | GI50 (PC-3) | GI50 (CAKI-1) | GI50 (OVCAR-5) | GI50 (SNB-75) | GI50 (ACHN) | GI50 (HCC 2998) | GI50 (UO-31) | GI50 (SK-MEL-2) | GI50 (MCF7) | GI50 (MDA-MB-435) | GI50 (A498)
CC1=C(C(=O)OC(C)C)C(c2ccccc2[N+](=O)[O-])C(C(=O)OC(CO[N+](=O)[O-])CO[N+](=O)[O-])=C(C)N1 (stereo not drawn) | 3.8 µM (inactive) | 1.46 µM (inactive) | 4.01 µM (inactive) | 6.49 µM (inactive) | 4.03 µM (inactive) | 3.08 | 4.99 µM (inactive) | 2.79 µM (inactive) | 2.99 µM (inactive) | 2.14 µM (inactive) | 3.32 µM (inactive) | 13.8 µM (inactive) | 1.54 µM (inactive) | 3.21 µM (inactive) | 5.83 µM (inactive) | 3.56 µM (inactive) | 2.99 µM (inactive) | 3.55 µM (inactive) | 3.48 µM (inactive) | –
O=C(NCCCc1cn[nH]c(=O)n1)c1cccc2nc3ccccc3nc12 | 86.3 µM (inactive) | 33.3 µM (inactive) | > 100 µM (inactive) | > 100 µM (inactive) | > 100 µM (inactive) | > 100 | > 100 µM (inactive) | > 100 µM (inactive) | 36.5 µM (inactive) | > 100 µM (inactive) | > 100 µM (inactive) | > 100 µM (inactive) | – | 31.6 µM (inactive) | > 100 µM (inactive) | – | > 100 µM (inactive) | > 100 µM (inactive) | > 100 µM (inactive) | > 100 µM (inactive)
COc1cccc(C2c3cc4c(cc3OC(N3CCCC3)C2C)OCO4)c1 (stereo not drawn) | 20.9 µM (inactive) | – | 8.79 µM (inactive) | 7.48 µM (inactive) | 4.55 µM (inactive) | 4.68 | 5.16 µM (inactive) | 1.79 µM (inactive) | – | 11 µM (inactive) | 2.12 µM (inactive) | 24.9 µM (inactive) | 4.99 µM (inactive) | 8.79 µM (inactive) | 11.9 µM (inactive) | 12.1 µM (inactive) | 5.48 µM (inactive) | 5.85 µM (inactive) | 2.7 µM (inactive) | –
COC(=O)CCC12CCC(O1)c1ccccc12 (stereo not drawn) | > 100 µM (inactive) | > 100 µM (inactive) | > 100 µM (inactive) | – | > 100 µM (inactive) | > 100 | > 100 µM (inactive) | > 100 µM (inactive) | > 100 µM (inactive) | > 100 µM (inactive) | > 100 µM (inactive) | > 100 µM (inactive) | > 100 µM (inactive) | > 100 µM (inactive) | > 100 µM (inactive) | > 100 µM (inactive) | – | > 100 µM (inactive) | > 100 µM (inactive) | > 100 µM (inactive)
NC(CCC(=O)OCc1ccccc1)C(=O)NC(CCC(=O)OCc1ccccc1)C(=O)O (stereo not drawn) (H-Glu(OBn)-Glu(OBn)-OH; configuration not given here) | > 100 µM (inactive) | > 100 µM (inactive) | > 100 µM (inactive) | > 100 µM (inactive) | > 100 µM (inactive) | > 100 | > 100 µM (inactive) | > 100 µM (inactive) | > 100 µM (inactive) | > 100 µM (inactive) | > 100 µM (inactive) | > 100 µM (inactive) | > 100 µM (inactive) | > 100 µM (inactive) | > 100 µM (inactive) | > 100 µM (inactive) | – | > 100 µM (inactive) | > 100 µM (inactive) | –
O=C(CN1CCCC1)Nc1ccc2c(c1)C1Oc3ccccc3CC1CO2 (stereo not drawn) | > 100 µM (inactive) | 31.4 µM (inactive) | – | 57.5 µM (inactive) | 17.3 µM (inactive) | 18.6 | 40.1 µM (inactive) | 31.2 µM (inactive) | 21.2 µM (inactive) | 24.8 µM (inactive) | 49.3 µM (inactive) | 30.9 µM (inactive) | – | – | 16.8 µM (inactive) | 22.1 µM (inactive) | 23.9 µM (inactive) | 17.3 µM (inactive) | 22.2 µM (inactive) | > 100 µM (inactive)
COc1ccc(NC2=CC(=O)C(=O)c3ccccc32)nn1 | 1.6 µM (inactive) | 0.546 µM (active) | 1.08 µM (active) | 1.2 µM (inactive) | 1.29 µM (inactive) | 0.423 | 3.4 µM (inactive) | 0.262 µM (active) | 1.52 µM (inactive) | 2.73 µM (inactive) | 2.19 µM (inactive) | 1.92 µM (inactive) | – | 1.66 µM (inactive) | 6.68 µM (inactive) | 2.5 µM (inactive) | 1.95 µM (inactive) | 0.557 µM (active) | 0.197 µM (active) | 1.73 µM (inactive)
CSc1nc(N)c(NC2OC(CO)C(O)C2O)c(=O)[nH]1 (stereo not drawn) | > 100 µM (inactive) | > 100 µM (inactive) | > 100 µM (inactive) | > 100 µM (inactive) | > 100 µM (inactive) | > 100 | > 100 µM (inactive) | > 100 µM (inactive) | > 100 µM (inactive) | > 100 µM (inactive) | > 100 µM (inactive) | > 100 µM (inactive) | > 100 µM (inactive) | – | – | > 100 µM (inactive) | > 100 µM (inactive) | > 100 µM (inactive) | > 100 µM (inactive) | > 100 µM (inactive)
COc1ccc(/C=C2\N=C(N3CCCCC3)NC2=O)cc1 | > 100 µM (inactive) | > 100 µM (inactive) | > 100 µM (inactive) | > 100 µM (inactive) | 96.8 µM (inactive) | > 100 | 34.5 µM (inactive) | 59 µM (inactive) | > 100 µM (inactive) | > 100 µM (inactive) | > 100 µM (inactive) | > 100 µM (inactive) | 37.2 µM (inactive) | > 100 µM (inactive) | > 100 µM (inactive) | 48.3 µM (inactive) | > 100 µM (inactive) | > 100 µM (inactive) | > 100 µM (inactive) | –
Brc1ccc(C2(N3CCCCC3)CCCCC2)s1 | > 100 µM (inactive) | 16.4 µM (inactive) | – | 38.7 µM (inactive) | 31.8 µM (inactive) | – | 11.9 µM (inactive) | 79.8 µM (inactive) | 33.1 µM (inactive) | 34.1 µM (inactive) | > 100 µM (inactive) | 67 µM (inactive) | – | 51.1 µM (inactive) | 15.7 µM (inactive) | 30.8 µM (inactive) | 19 µM (inactive) | 30.9 µM (inactive) | 23.9 µM (inactive) | 66.7 µM (inactive)
C/C(=C\CNc1ncnc2[nH]c(Cl)nc12)CO | > 100 µM (inactive) | > 100 µM (inactive) | > 100 µM (inactive) | > 100 µM (inactive) | > 100 µM (inactive) | – | > 100 µM (inactive) | > 100 µM (inactive) | – | > 100 µM (inactive) | > 100 µM (inactive) | > 100 µM (inactive) | > 100 µM (inactive) | > 100 µM (inactive) | > 100 µM (inactive) | > 100 µM (inactive) | – | > 100 µM (inactive) | > 100 µM (inactive) | > 100 µM (inactive)
O=[N+]([O-])/C=C/c1cn(CCCCCn2cc(/C=C/[N+](=O)[O-])c3ccccc32)c2ccccc12 | 3.16 µM (inactive) | 3.05 µM (inactive) | 1.12 µM (active) | 1.78 µM (inactive) | 0.682 µM (active) | 2.17 | 8.22 µM (inactive) | 0.322 µM (active) | 1.61 µM (inactive) | 3.58 µM (inactive) | 17.7 µM (inactive) | 9.55 µM (inactive) | – | 4.66 µM (inactive) | 1.04 µM (active) | 3.64 µM (inactive) | 13.5 µM (inactive) | 0.408 µM (active) | 0.953 µM (active) | 1.94 µM (inactive)
c1csc(-c2cc(-c3ccsc3)c(-c3ccsc3)s2)c1 | > 100 µM (inactive) | > 100 µM (inactive) | > 100 µM (inactive) | > 100 µM (inactive) | > 100 µM (inactive) | 24 | 3.49 µM (inactive) | > 100 µM (inactive) | > 100 µM (inactive) | > 100 µM (inactive) | > 100 µM (inactive) | > 100 µM (inactive) | > 100 µM (inactive) | > 100 µM (inactive) | 68.7 µM (inactive) | > 100 µM (inactive) | – | 24.8 µM (inactive) | > 100 µM (inactive) | > 100 µM (inactive)
O=C1c2c(ccc3c2CCCC3)CC1Cc1ccc2c(c1)CCCC2 (stereo not drawn) | 45 µM (inactive) | 35 µM (inactive) | > 100 µM (inactive) | > 100 µM (inactive) | 61.7 µM (inactive) | 36.1 | 0.787 µM (active) | 39 µM (inactive) | 67 µM (inactive) | 45.5 µM (inactive) | – | > 100 µM (inactive) | 4.68 µM (inactive) | 80.4 µM (inactive) | 34.6 µM (inactive) | > 100 µM (inactive) | 47.3 µM (inactive) | 27.2 µM (inactive) | 34 µM (inactive) | > 100 µM (inactive)
O=C(O)c1ccc(C(c2c(O)oc3ccccc3c2=O)c2c(O)oc3ccccc3c2=O)cc1 | > 100 µM (inactive) | > 100 µM (inactive) | 15.2 µM (inactive) | > 100 µM (inactive) | > 100 µM (inactive) | > 100 | > 100 µM (inactive) | > 100 µM (inactive) | > 100 µM (inactive) | > 100 µM (inactive) | > 100 µM (inactive) | 86.3 µM (inactive) | – | > 100 µM (inactive) | 29.3 µM (inactive) | 14.2 µM (inactive) | > 100 µM (inactive) | > 100 µM (inactive) | > 100 µM (inactive) | 2.92 µM (inactive)

— ChEMBL document CHEMBL1201862, “PubChem BioAssay data set” (2004)
